Data taken from ChEMBL document CHEMBL4665733, “Selective thyroid hormone receptor β agonists with oxadiazolone acid isosteres” (Bioorg Med Chem Lett, 2020).
The source made the active and inactive calls. The calls are words filed in the database; no cut-off is given here.

Assays:
Homo sapiens = species: Homo sapiens; experiment: Selectivity index, ratio of EC50 for THRalpha (unknown origin) to EC50 for THRbeta (unknown origin)
[1] = Half life in Beagle dog at 10 mg/kg, po measured up to 24 hrs by LC-MS/MS analysis; format: ADME, organism-based, Canis lupus familiaris; conditions: in vivo
[2] = Half life in cynomolgus monkey at 10 mg/kg, po measured up to 24 hrs by LC-MS/MS analysis; format: ADME, organism-based, Macaca fascicularis; conditions: in vivo
[3] = Half life in Sprague-Dawley rat at 10 mg/kg, po measured up to 24 hrs by LC-MS/MS analysis; format: ADME, organism-based; conditions: in vivo
Rattus norvegicus = species: Rattus norvegicus; experiment: Antihyperlipidemic activity in high cholesterol diet-induced Sprague-Dawley rat model of hypercholesterolemia assessed as reduction in serum total cholesterol level after 24 hrs; format: functional, organism-based
Mus musculus [4] = experiment: Agonist activity at THRbeta in C57BL/6J mouse model of NASH assessed as increase in CYP7A1 gene expression in liver at 30 mg/kg, po via gavage administered once daily for 28 days; format: functional, organism-based; conditions: time 28.0 day
Mus musculus [5] = experiment: Agonist activity at THRbeta in C57BL/6J mouse model of NASH assessed as increase in Dio1 gene expression in liver at 30 mg/kg, po via gavage administered once daily for 28 days; format: functional, organism-based; conditions: time 28.0 day
Mus musculus [6] = experiment: Antifibrotic activity in CCl4-induced C57BL/6J mouse model of liver fibrosis assessed as reduction in liver fibrosis at 30 mg/kg, po via gavage administered once daily for 28 days by Sirius Red staining based histological analysis; format: functional, organism-based; conditions: time 28.0 day
Mus musculus [7] = experiment: Anti-hepatosteatosis activity in C57BL/6J mouse model of high fat-induced obesity assessed as reduction in liver steatosis at 30 mg/kg, po via gavage administered once daily for 28 days by hematoxylin-eosin staining based histological analysis; format: functional, organism-based; conditions: time 28.0 day
[8] = AUC (0 to 24 hrs) in C57BL/6J mouse at 30 mg/kg, po administered via gavage as single dose; format: ADME, organism-based; set-up: time < 24 hr, route oral, dose 30 mg/kg; conditions: in vivo
[9] = Dissociation constant, pKa of compound; format: physicochemical
[10] = Oral bioavailability in Sprague-Dawley rat at 2 mg/kg; format: ADME, organism-based; conditions: in vivo
[11] = Volume of distribution at steady state in Sprague-Dawley rat at 1 mg/kg, iv and 2 mg/kg, po; format: ADME, organism-based; conditions: in vivo, read-out: Vdss
[12] = Plasma clearance in Sprague-Dawley rat at 1 mg/kg, iv and 2 mg/kg, po; format: ADME, organism-based
[13] = Tmax in Sprague-Dawley rat at 3 mg/kg, ip; format: ADME, organism-based; conditions: in vivo
[14] = MRT in Sprague-Dawley rat at 3 mg/kg, ip; format: ADME, organism-based; conditions: in vivo

Structure (SMILES)	Ratio EC50 (Homo sapiens)	other results
CC(C)c1cc(Oc2c(Cl)cc(NCc3noc(=O)[nH]3)cc2Cl)n[nH]c1=O	1.8	
CC(C)c1cc(Oc2c(Cl)cc(-n3nc(C#N)c(=O)[nH]c3=O)cc2Cl)n[nH]c1=O	15	
CC(C)(C)c1cc(Oc2c(Cl)cc(NC(=O)c3noc(=O)[nH]3)cc2Cl)n[nH]c1=O	12.3	
CC(O)c1cc(Oc2c(Cl)cc(NC(=O)c3noc(=O)[nH]3)cc2Cl)n[nH]c1=O (racemic)	16.5	
CC(C)c1cc(Oc2c(Cl)cc(N(C)Cc3noc(=O)[nH]3)cc2Cl)nn(C)c1=O	0.5	
CCC(O)c1cc(Oc2c(Cl)cc(NC(=O)c3noc(=O)[nH]3)cc2Cl)n[nH]c1=O (racemic)	16.2	
Cc1cc(OCP(=O)(O)O)cc(C)c1Cc1ccc(O)c(C(C)C)c1 [MB07344]	2.1	half-life [1]: 10.2 h; half-life [2]: 6.5 h; half-life [3]: 9.3 h
CC(C)c1cc(C(=O)c2c(Cl)cc(NCc3noc(=O)[nH]3)cc2Cl)nn(C)c1=O	0.8	
CC(C)c1cc(Oc2c(Cl)cc(NC(=O)c3noc(=O)[nH]3)cc2Cl)n[nH]c1=O	21.6	Activity (Rattus norvegicus): Dose-dependent effect
CC(C)(O)c1cc(Oc2c(Cl)cc(NC(=O)c3noc(=O)[nH]3)cc2Cl)n[nH]c1=O	11.1	
CC(C)c1cc(Cc2c(Cl)cc(NC(=O)c3noc(=O)[nH]3)cc2Cl)nn(C)c1=O	14.5	
CC(C)c1cc(C(=O)c2c(Cl)cc(NC(=O)c3noc(=O)[nH]3)cc2Cl)nn(C)c1=O	6.1	
CC(CO)c1cc(Oc2c(Cl)cc(NC(=O)c3noc(=O)[nH]3)cc2Cl)nn(C)c1=O (racemic)	9.2	
CC(C)c1cc(Oc2c(Cl)cc(NCc3noc(=O)[nH]3)cc2Cl)nn(C)c1=O	8.6	
CC(C)c1cc(Oc2c(Cl)cc(NC(C)c3noc(=O)[nH]3)cc2Cl)nn(C)c1=O (racemic)	0.2	
CC(C)c1cc(Oc2c(Cl)cc(NC(=O)c3noc(=O)[nH]3)cc2Cl)nn(C)c1=O	14.1	Activity (Mus musculus [4]): Active; Activity (Mus musculus [5]): Active; Activity (Mus musculus [6]): Active; Activity (Mus musculus [7]): Active; AUC(0-t) at 24 h [8]: 17200 ng·h/mL; pKa [9]: 4.5; bioavailability [10]: 24%; Vd [11]: 0.53 L/kg; clearance [12]: 13 mL/min/kg; Tmax [13]: 1 h; MRT [14]: 1.8 h; Activity (Rattus norvegicus): Dose-dependent effect
CC(C)c1cc(Cc2c(Cl)cc(NCc3noc(=O)[nH]3)cc2Cl)nn(C)c1=O	1.7	
